# Assay results taken from patent US12102638B2 (Urovant Sciences GmbH, priority 2017, dated 2024).
# “And” between values parts separate entries of the source, which are not always exact repeats. Equal entries are not always repeated.
# Assays:
# healthy subjects [1] = assay: thorough QT single oral dose study; format: in vivo, human
# patients with OAB = assay: Phase 2b vital sign changes (HR, SBP, DBP); format: in vivo, human
# Source text: None led to discontinuation. The overall incidence of orthostatic symptoms was low.
# Small differences in the percent of subjects exceeding categorical heart rate and blood pressure thresholds for vibegron were similar to those in the tolterodine arm.
# [2] = dose-Cmax and dose-AUC models / log-log regression and simulations from Phase 1 data; set-up: species or system human
# Description: In order to contextualize PK parameters of a 75 mg dose, dose-Cmax and dose-AUC models were created using data from Phase 1 studies.
# [3] = human, in vivo
# healthy subjects [4] = test system: healthy subjects
# Source text: Safety data from 16 Phase 1 studies, which include 15 completed Phase 1 studies and 1 study that was terminated early (this study was terminated for reasons unrelated to efficacy or safety) was collected.
compound,measurement,setting,value
"O=C(Nc1ccc(C[C@@H]2CC[C@H]([C@H](O)c3ccccc3)N2)cc1)[C@@H]1CCc2nccc(=O)n21 [vibegron, (6S)—N-[4-[[(2S,5R)-5-[(R)-hydroxy(phenyl)methyl]pyrrolidin-2-yl]methyl]phenyl]-4-oxo-7,8-dihydro-6H-pyrrolo[1,2-a]pyrimidine-6-carboxamide]",QTcF LS mean difference from placebo,"healthy subjects [1]; single 200 mg, 8 hour",-1.24 ms
same,"QTcF change from baseline, LS mean","healthy subjects [1]; single 200 mg, 8 hour",-9.59 ms
same,QTcF LS mean difference from placebo,"healthy subjects [1]; single 200 mg, 10 hour",-2.67 ms
same,"QTcF change from baseline, LS mean","healthy subjects [1]; single 200 mg, 10 hour",-8.82 ms
same,QTcF LS mean difference from placebo,"healthy subjects [1]; single 200 mg, 12 hour",-3.72 ms
same,"QTcF change from baseline, LS mean","healthy subjects [1]; single 200 mg, 12 hour",-6.82 ms
same,QTcF LS mean difference from placebo,"healthy subjects [1]; single 200 mg, 23.5 hour",0.38 ms
same,"QTcF change from baseline, LS mean","healthy subjects [1]; single 200 mg, 23.5 hour",-2.15 ms
same,"AUC, mean ± SD",healthy subjects [1]; single 400 mg,6800 ± 2300 ng·h/mL
same,Maximum Mean Placebo Corrected Change from Baseline Diastolic BP,healthy subjects [1]; single 400 mg,3.99 mmHg
same,Maximum Mean Placebo Corrected Change from Baseline RR interval,healthy subjects [1]; single 400 mg,-162.45 ms
same,Maximum Mean Placebo Corrected Change from Baseline Systolic BP,healthy subjects [1]; single 400 mg,3.97 mmHg
same,QTcF LS mean difference from placebo,"healthy subjects [1]; single 400 mg, 0.5 hour",3.37 ms
same,"QTcF change from baseline, LS mean","healthy subjects [1]; single 400 mg, 0.5 hour",2.37 ms
same,"QTcF change from baseline, LS mean","healthy subjects [1]; single 400 mg, 1 hour",4.49 ms
same,QTcF LS mean difference from placebo,"healthy subjects [1]; single 400 mg, 1 hour (maximum)","4.60 (2.71, 6.48) msec and 4.60 msec"
same,QTcF LS mean difference from placebo,"healthy subjects [1]; single 400 mg, 2 hour",0.81 ms
same,"QTcF change from baseline, LS mean","healthy subjects [1]; single 400 mg, 2 hour",0.73 ms
same,QTcF LS mean difference from placebo,"healthy subjects [1]; single 400 mg, 3 hour",-1.04 ms
same,"QTcF change from baseline, LS mean","healthy subjects [1]; single 400 mg, 3 hour",-0.30 ms
same,QTcF LS mean difference from placebo,"healthy subjects [1]; single 400 mg, 4 hour",-2.96 ms
same,"QTcF change from baseline, LS mean","healthy subjects [1]; single 400 mg, 4 hour",-2.53 ms
same,QTcF LS mean difference from placebo,"healthy subjects [1]; single 400 mg, 6 hour",-2.70 ms
same,"QTcF change from baseline, LS mean","healthy subjects [1]; single 400 mg, 6 hour",-8.33 ms
same,QTcF LS mean difference from placebo,"healthy subjects [1]; single 400 mg, 8 hour",-3.24 ms
same,"QTcF change from baseline, LS mean","healthy subjects [1]; single 400 mg, 8 hour",-11.60 ms
same,QTcF LS mean difference from placebo,"healthy subjects [1]; single 400 mg, 10 hour",-4.14 ms
same,"QTcF change from baseline, LS mean","healthy subjects [1]; single 400 mg, 10 hour",-10.29 ms
same,QTcF LS mean difference from placebo,"healthy subjects [1]; single 400 mg, 12 hour",-4.00 ms
same,"QTcF change from baseline, LS mean","healthy subjects [1]; single 400 mg, 12 hour",-7.10 ms
same,QTcF LS mean difference from placebo,"healthy subjects [1]; single 400 mg, 23.5 hour",-0.34 ms
same,"QTcF change from baseline, LS mean","healthy subjects [1]; single 400 mg, 23.5 hour",-2.87 ms
same,effect on QTc or blood pressure,healthy subjects [1]; thorough QT study,no clinically meaningful effect on QTc or blood pressure
same,"SBP and DBP mean changes at Week 1 and mean maximum changes over 8 weeks, difference between placebo and vibegron",patients with OAB; 50 mg and 100 mg,< 1 mm Hg
same,percent of subjects with a change from baseline in DBP >15 mmHg,patients with OAB; 100 mg,1.3%
same,"HR mean maximum changes over 8 weeks, difference to placebo",patients with OAB; in vivo,< 2 bpm
same,"DBP change from baseline, mean (95% CI) Max, week 1 to 8",patients with OAB; vibegron 3 mg,"5.03 (3.92, 6.15) mm Hg"
same,"DBP change from baseline, mean (95% CI), week 1",patients with OAB; vibegron 3 mg,"−0.37 (−1.69, 0.95) mm Hg"
same,"HR change from baseline, mean (95% CI) maximum, week 1 to 8",patients with OAB; vibegron 3 mg,"5.57 (4.25, 6.90) bpm"
same,"HR change from baseline, mean (95% CI), week 1",patients with OAB; vibegron 3 mg,"0.36 (−0.90, 1.62) bpm"
same,"SBP change from baseline, mean (95% CI) maximum, week 1 to 8",patients with OAB; vibegron 3 mg,"7.14 (5.18, 9.10) mm Hg"
same,"SBP change from baseline, mean (95% CI), week 1",patients with OAB; vibegron 3 mg,"−0.35 (−2.34, 1.65) mm Hg"
same,"DBP change from baseline, mean (95% CI) Max, week 1 to 8",patients with OAB; vibegron 15 mg,"6.37 (5.20, 7.53) mm Hg"
same,"DBP change from baseline, mean (95% CI), week 1",patients with OAB; vibegron 15 mg,"0.03 (−1.52, 1.59) mm Hg"
same,"HR change from baseline, mean (95% CI) maximum, week 1 to 8",patients with OAB; vibegron 15 mg,"6.56 (5.20, 7.92) bpm"
same,"HR change from baseline, mean (95% CI), week 1",patients with OAB; vibegron 15 mg,"0.35 (−1.15, 1.85) bpm"
same,"SBP change from baseline, mean (95% CI) maximum, week 1 to 8",patients with OAB; vibegron 15 mg,"8.93 (7.18, 10.67) mm Hg"
same,"SBP change from baseline, mean (95% CI), week 1",patients with OAB; vibegron 15 mg,"−0.34 (−2.46, 1.78) mm Hg"
same,"DBP change from baseline, mean (95% CI) Max, week 1 to 8",patients with OAB; vibegron 50 mg,"4.19 (3.10, 5.29) mm Hg"
same,"DBP change from baseline, mean (95% CI), week 1",patients with OAB; vibegron 50 mg,"−0.70 (−2.07, 0.67) mm Hg"
same,"HR change from baseline, mean (95% CI) maximum, week 1 to 8",patients with OAB; vibegron 50 mg,"5.49 (4.28, 6.69) bpm"
same,"HR change from baseline, mean (95% CI), week 1",patients with OAB; vibegron 50 mg,"0.29 (−0.88, 1.46) bpm"
same,"SBP change from baseline, mean (95% CI) maximum, week 1 to 8",patients with OAB; vibegron 50 mg,"7.01 (5.31, 8.70) mm Hg"
same,"SBP change from baseline, mean (95% CI), week 1",patients with OAB; vibegron 50 mg,"−0.79 (−2.65, 1.08) mm Hg"
same,"DBP change from baseline, mean (95% CI) Max, week 1 to 8",patients with OAB; vibegron 100 mg,"4.80 (3.88, 5.72) mm Hg"
same,"DBP change from baseline, mean (95% CI), week 1",patients with OAB; vibegron 100 mg,"−0.69 (−1.72, 0.34) mm Hg"
same,"HR change from baseline, mean (95% CI) maximum, week 1 to 8",patients with OAB; vibegron 100 mg,"6.12 (5.10, 7.15) bpm"
same,"HR change from baseline, mean (95% CI), week 1",patients with OAB; vibegron 100 mg,"0.35 (−0.69, 1.38) bpm"
same,"SBP change from baseline, mean (95% CI) maximum, week 1 to 8",patients with OAB; vibegron 100 mg,"6.51 (5.09, 7.93) mm Hg"
same,"SBP change from baseline, mean (95% CI), week 1",patients with OAB; vibegron 100 mg,"−0.77 (−2.22, 0.68) mm Hg"
same,AUC of 75 mg lower than 200 mg single dose,[2],~2 fold
same,AUC of 75 mg lower than 400 mg single dose,[2],~6 fold
same,Cmax of 75 mg lower than 200 mg single dose,[2],approximately 3.3 fold
same,Cmax of 75 mg lower than 400 mg single dose,[2],~9.2 fold
same,increase in Cmax on increase in dose from 50 to 100 mg,[2],~3 fold
same,reduction in Cmax on decreasing the dose from 100 mg to 75 mg,[2],~40%
same,dose recovered in feces,[3],approximately 59%
same,dose recovered in urine,[3],~20%
same,"postural dizziness, dose relation",healthy subjects [4]; Phase 1 multiple dose studies,appeared to increase at doses ≥100 mg
same,treatment-emergent serious adverse events (SAEs) or deaths,healthy subjects [4]; Phase 1 program,no treatment-emergent serious adverse events (SAEs) or deaths reported
same,"incidence of AE orthostatic hypotension with symptoms, dose relation",healthy subjects [4]; Phase 1 studies,higher at vibegron doses greater than 150 mg
same,laboratory safety parameters and ECG parameters,healthy subjects [4]; preliminary Phase 1 safety data,no clinically meaningful changes
same,tolerability across the Phase 1 program,"healthy subjects [4]; single doses 2 to 600 mg, multiple doses 25 to 400 mg up to 28 days",generally well tolerated
same,orthostatic AEs on coadministration with metoprolol or amlodipine,"healthy subjects [4]; vibegron 100 mg, subjects with essential hypertension",no occurrences of orthostatic AEs
